System: whole human blood
Experiment: whole blood clotting time in microfluidic coagulation device (infusion or pressure pump mode)
Format: cell-based
Details: microchannels coated with human collagen I at 100 μg/ml; device of FIG. 13A; uncoated PDMS 15-60 minutes
Protocol: As discussed below, in the test configuration, 2-5 ml of human whole blood was pumped through an infusion or pressure pump followed by an inline pressure sensor that connected to ports 120a, 120b of the microfluidic device 100 via appropriate medical grade tubing (e.g., 1.6 mm ID). In infusion mode, clot formation leads to an increase in pressure, whereas in constant pressure mode, the flow rate drops with respect to time. […] The characteristic constants of these models indicate clotting times at two stages—when the clot formation is accelerating and when the clot has completely occluded the channel. […] Fluorescence microscopy of fibrinogen and platelets allow real-time monitoring of fibrin formation and platelet aggregation simultaneously.
In the testing conducted with the microfluidic device 100 of FIG. 1, fresh human blood stored in a 5 ml syringe (slip-tip Plastipak, BD, Franklin Lakes, N.J.) was pushed via syringe pump (PHD Ultra CP, Harvard Apparatus, Holliston, Mass.) through an inline, disposable pressure sensor (PREPS-N-000, PendoTECH, Princeton, N.J.) followed by the PDMS device within 15 minutes of blood draw. […] In the test setup, the imaging device 130 used was a fluorescence imaging configured Carl Zeiss Axio 3 Observer microscope (10×, NA 0.3 objective), but other imaging devices may be readily used in accord with the present concepts. […]

## human collagen I: human collagen I coated on the microchannels at a concentration of 100 μg/ml
  clotting time with collagen-coated microchannels: 2 to 20 min

— patent US9562914B2, “Microfluidic device for real-time clinical monitoring and quantitative assessment of whole blood coagulation” (President and Fellows of Harvard College, priority 2013, dated 2017)
